Measurements from the NIST ThermoML archive (doi:10.1016/j.jct.2005.04.015).

Assay: excess molar enthalpy (molar enthalpy of mixing); xn = mol fraction of the nth substance listed
Conditions: Liquid, Flow calorimetry

CCOC=O [ethyl methanoate] + CC(C)O
Conditions | excess molar enthalpy [kJ/mol]
298.15 K, 5000 kPa, x1 = 0.0498 | 0.337
298.15 K, 5000 kPa, x1 = 0.0993 | 0.662
298.15 K, 5000 kPa, x1 = 0.1485 | 0.926
298.15 K, 5000 kPa, x1 = 0.2008 | 1.15
298.15 K, 5000 kPa, x1 = 0.2493 | 1.32
298.15 K, 5000 kPa, x1 = 0.3009 | 1.46
298.15 K, 5000 kPa, x1 = 0.3488 | 1.56
298.15 K, 5000 kPa, x1 = 0.3997 | 1.64
298.15 K, 5000 kPa, x1 = 0.4503 | 1.68
298.15 K, 5000 kPa, x1 = 0.5005 | 1.69
298.15 K, 5000 kPa, x1 = 0.5504 | 1.67
298.15 K, 5000 kPa, x1 = 0.5999 | 1.63
298.15 K, 5000 kPa, x1 = 0.6492 | 1.56
298.15 K, 5000 kPa, x1 = 0.7013 | 1.44
298.15 K, 5000 kPa, x1 = 0.7498 | 1.3
298.15 K, 5000 kPa, x1 = 0.8012 | 1.12
298.15 K, 5000 kPa, x1 = 0.8997 | 0.654
298.15 K, 5000 kPa, x1 = 0.95 | 0.359
298.15 K, 10000 kPa, x1 = 0.0497 | 0.31
298.15 K, 10000 kPa, x1 = 0.099 | 0.638
298.15 K, 10000 kPa, x1 = 0.1516 | 0.914
298.15 K, 10000 kPa, x1 = 0.2003 | 1.13
298.15 K, 10000 kPa, x1 = 0.2487 | 1.3
298.15 K, 10000 kPa, x1 = 0.3002 | 1.44
298.15 K, 10000 kPa, x1 = 0.3514 | 1.54
298.15 K, 10000 kPa, x1 = 0.3989 | 1.6
298.15 K, 10000 kPa, x1 = 0.4495 | 1.64
298.15 K, 10000 kPa, x1 = 0.4997 | 1.66
298.15 K, 10000 kPa, x1 = 0.5496 | 1.64
298.15 K, 10000 kPa, x1 = 0.5991 | 1.61
298.15 K, 10000 kPa, x1 = 0.6484 | 1.54
298.15 K, 10000 kPa, x1 = 0.7006 | 1.42
298.15 K, 10000 kPa, x1 = 0.7492 | 1.3
298.15 K, 10000 kPa, x1 = 0.8006 | 1.11
298.15 K, 10000 kPa, x1 = 0.8994 | 0.655
298.15 K, 10000 kPa, x1 = 0.9499 | 0.362
308.15 K, 10000 kPa, x1 = 0.0487 | 0.214
308.15 K, 10000 kPa, x1 = 0.1 | 0.58
308.15 K, 10000 kPa, x1 = 0.1511 | 0.884
308.15 K, 10000 kPa, x1 = 0.1988 | 1.12
308.15 K, 10000 kPa, x1 = 0.2492 | 1.31
308.15 K, 10000 kPa, x1 = 0.2993 | 1.47
308.15 K, 10000 kPa, x1 = 0.349 | 1.58
308.15 K, 10000 kPa, x1 = 0.4013 | 1.67
308.15 K, 10000 kPa, x1 = 0.4504 | 1.71
308.15 K, 10000 kPa, x1 = 0.4992 | 1.73
308.15 K, 10000 kPa, x1 = 0.5505 | 1.71
308.15 K, 10000 kPa, x1 = 0.5987 | 1.67
308.15 K, 10000 kPa, x1 = 0.6996 | 1.48
308.15 K, 10000 kPa, x1 = 0.7496 | 1.34
308.15 K, 10000 kPa, x1 = 0.7993 | 1.16
308.15 K, 10000 kPa, x1 = 0.8513 | 0.944
308.15 K, 10000 kPa, x1 = 0.9003 | 0.683
308.15 K, 10000 kPa, x1 = 0.949 | 0.381

CCOC=O [ethyl methanoate] + CCC(C)O
excess molar enthalpy [kJ/mol]
Conditions | 298.15 K | 308.15 K
5000 kPa, x1 = 0.1504 | 0.979 | –
5000 kPa, x1 = 0.1997 | 1.21 | –
5000 kPa, x1 = 0.2497 | 1.41 | –
5000 kPa, x1 = 0.3005 | 1.56 | –
5000 kPa, x1 = 0.3501 | 1.67 | –
5000 kPa, x1 = 0.4005 | 1.75 | –
5000 kPa, x1 = 0.4497 | 1.8 | –
5000 kPa, x1 = 0.4996 | 1.81 | –
5000 kPa, x1 = 0.5502 | 1.78 | –
5000 kPa, x1 = 0.5995 | 1.73 | –
5000 kPa, x1 = 0.6496 | 1.65 | –
5000 kPa, x1 = 0.7003 | 1.53 | –
5000 kPa, x1 = 0.7496 | 1.37 | –
5000 kPa, x1 = 0.7996 | 1.19 | –
5000 kPa, x1 = 0.8996 | 0.651 | –
5000 kPa, x1 = 0.9494 | 0.34 | –
10000 kPa, x1 = 0.0492 | 0.353 | –
10000 kPa, x1 = 0.0496 | – | 0.421
10000 kPa, x1 = 0.0992 | 0.713 | –
10000 kPa, x1 = 0.1 | – | 0.826
10000 kPa, x1 = 0.15 | 1.02 | –
10000 kPa, x1 = 0.1513 | – | 1.16
10000 kPa, x1 = 0.1985 | 1.25 | –
10000 kPa, x1 = 0.2007 | – | 1.41
10000 kPa, x1 = 0.2509 | 1.45 | 1.61
10000 kPa, x1 = 0.2992 | – | 1.77
10000 kPa, x1 = 0.301 | 1.6 | –
10000 kPa, x1 = 0.3487 | 1.7 | –
10000 kPa, x1 = 0.351 | – | 1.89
10000 kPa, x1 = 0.4004 | 1.78 | –
10000 kPa, x1 = 0.4008 | – | 1.97
10000 kPa, x1 = 0.4495 | 1.82 | –
10000 kPa, x1 = 0.4514 | – | 2.01
10000 kPa, x1 = 0.4994 | 1.84 | –
10000 kPa, x1 = 0.4999 | – | 2.01
10000 kPa, x1 = 0.5491 | – | 1.99
10000 kPa, x1 = 0.5501 | 1.81 | –
10000 kPa, x1 = 0.599 | – | 1.93
10000 kPa, x1 = 0.6015 | 1.76 | –
10000 kPa, x1 = 0.6497 | – | 1.82
10000 kPa, x1 = 0.6502 | 1.68 | –
10000 kPa, x1 = 0.6996 | 1.56 | –
10000 kPa, x1 = 0.7011 | – | 1.69
10000 kPa, x1 = 0.7497 | 1.38 | –
10000 kPa, x1 = 0.7502 | – | 1.52
10000 kPa, x1 = 0.8 | – | 1.31
10000 kPa, x1 = 0.8006 | 1.19 | –
10000 kPa, x1 = 0.8485 | 0.932 | –
10000 kPa, x1 = 0.8506 | – | 1.07
10000 kPa, x1 = 0.8986 | – | 0.776
10000 kPa, x1 = 0.9008 | 0.642 | –
10000 kPa, x1 = 0.95 | 0.374 | –
10000 kPa, x1 = 0.9506 | – | 0.404

CCOC=O [ethyl methanoate] + CCCCCO
298.15 K
Conditions | excess molar enthalpy [kJ/mol]
5000 kPa, x1 = 0.0502 | 0.259
5000 kPa, x1 = 0.0995 | 0.606
5000 kPa, x1 = 0.1505 | 0.92
5000 kPa, x1 = 0.2006 | 1.17
5000 kPa, x1 = 0.2494 | 1.36
5000 kPa, x1 = 0.2998 | 1.51
5000 kPa, x1 = 0.3487 | 1.62
5000 kPa, x1 = 0.3992 | 1.69
5000 kPa, x1 = 0.4514 | 1.71
5000 kPa, x1 = 0.4984 | 1.72
5000 kPa, x1 = 0.5503 | 1.7
5000 kPa, x1 = 0.6002 | 1.64
5000 kPa, x1 = 0.6516 | 1.56
5000 kPa, x1 = 0.7007 | 1.45
5000 kPa, x1 = 0.7513 | 1.3
5000 kPa, x1 = 0.7992 | 1.12
5000 kPa, x1 = 0.8484 | 0.899
5000 kPa, x1 = 0.899 | 0.631
5000 kPa, x1 = 0.951 | 0.316
10000 kPa, x1 = 0.05 | 0.396
10000 kPa, x1 = 0.0992 | 0.743
10000 kPa, x1 = 0.1501 | 1.03
10000 kPa, x1 = 0.2 | 1.27
10000 kPa, x1 = 0.2487 | 1.44
10000 kPa, x1 = 0.2991 | 1.57
10000 kPa, x1 = 0.3511 | 1.69
10000 kPa, x1 = 0.3984 | 1.75
10000 kPa, x1 = 0.4505 | 1.78
10000 kPa, x1 = 0.501 | 1.78
10000 kPa, x1 = 0.5495 | 1.75
10000 kPa, x1 = 0.5994 | 1.7
10000 kPa, x1 = 0.6508 | 1.6
10000 kPa, x1 = 0.7 | 1.48
10000 kPa, x1 = 0.7506 | 1.3
10000 kPa, x1 = 0.7987 | 1.12
10000 kPa, x1 = 0.848 | 0.908
10000 kPa, x1 = 0.8987 | 0.643
10000 kPa, x1 = 0.9509 | 0.336
